Laboratory results taken from patent publication US20100055147A1, “ANGIOTENSIN (1-7) ELUTING STENT” (priority 2006, published 2010).

How the values were obtained:
[1] = test system: neointima formation in the rat abdominal aorta; test: Neointima area in stented rat abdominal aorta (histology); format: in vivo
Description: (§1) Specific pathogen-free, male Wistar rats (Harlan, Horst, Netherlands) were fed standard rat chow and water ad libitum. For Ang-(1-7) administration by minipump, 28 rats were used. The animals were anaesthetised with O2, N2O and isoflurane (Abbot B.V., Hoofddorp, Netherlands). In 20 animals, bare metal stents (Medtronic Driver® 2.5×8 mm stents) were placed in the abdominal aorta. Upon stent placement, osmotic minipumps (Model 2004, Alzet, Charles River, Maastricht, The Netherlands) were implanted subcutaneously for drug delivery via a catheter in the jugular vein. The pumps infused either Ang-(1-7) (Bachem, Well am Rhein, Germany) (24 μg/kg/h) (n=10) or saline (0.25 μl/h) (n=10). Furthermore, a control group underwent sham surgery (n=8: surgery identical to stent groups, but without balloon insertion and stenting), and received an osmotic minipump releasing saline. Treatment continued for four weeks. Five rats were excluded because of technical failure (aortic leakage or minipump failure) resulting in n=7 for Ang-(1-7) infusion, n=10 for saline infusion, and n-6 for sham-operated rats. […]
To determine if Ang-(1-7) infusion by minipump or elution from the stent reduced neointima formation, neointima area was measured in animals which received Ang-(1-7) either by stent or minipump (Table 1).

[2] = test system: isolated thoracic aorta rings; test: Organ bath, isolated thoracic aortic rings four weeks after stenting; format: in vivo, rat; conditions: minipump infusion, FIG. 5
Description: Specific pathogen-free, male Wistar rats (Harlan, Horst, Netherlands) were fed standard rat chow and water ad libitum. For Ang-(1-7) administration by minipump, 28 rats were used. The animals were anaesthetised with O2, N2O and isoflurane (Abbot B.V., Hoofddorp, Netherlands). In 20 animals, bare metal stents (Medtronic Driver® 2.5×8 mm stents) were placed in the abdominal aorta. Upon stent placement, osmotic minipumps (Model 2004, Alzet, Charles River, Maastricht, The Netherlands) were implanted subcutaneously for drug delivery via a catheter in the jugular vein. The pumps infused either Ang-(1-7) (Bachem, Well am Rhein, Germany) (24 μg/kg/h) (n=10) or saline (0.25 μl/h) (n=10). Furthermore, a control group underwent sham surgery (n=8: surgery identical to stent groups, but without balloon insertion and stenting), and received an osmotic minipump releasing saline. Treatment continued for four weeks. Five rats were excluded because of technical failure (aortic leakage or minipump failure) resulting in n=7 for Ang-(1-7) infusion, n=10 for saline infusion, and n-6 for sham-operated rats.
To test the effect of Ang-(1-7)-eluting stents (see Example 1 for details), 36 rats underwent placement of three types of stents into the abdominal aorta, bare metal stents, stents coated with polymer alone, or stents coated with polymer containing approximately 90 μg Ang-(1-7). Six rats were excluded because of technical failure during surgery, and three stents could not be processed due to incomplete polymerisation of embedding plastic (see below) leaving n=9 for bare metal stent, n=10 for stent with polymer only and n=8 for stent with polymer+Ang-(1-7).
Twenty-eight days after stent implantation, the animals were anaesthetised with O2, N2O and isoflurane, and systemically heparinized with 500 IE intravenously (Leo Pharma B.V., Breda, The Netherlands). The stented abdominal aortas were harvested, fixed, embedded in methylmethacrylate, sectioned and stained for histological analysis as described previously. […]
The stented aortas were evaluated in organ bath studies with isolated vascular rings. […] The endothelium-dependent vasodilation was assessed by a cumulative dose of metacholine (MeCh; 10 nM to 0.1 mM). […] The NO-dependent vasodilation to metacholine was calculated, by subtraction of the vasodilation in the presence of L-NMMA from the total vasodilation. The PG-dependent vasodilation in response to MeCh was calculated by subtraction of the vasodilation in the presence of L-NMMA and indomethacin from the vasodilation in the presence of L-NMMA. The EDHF-dependent vasodilation was determined by the vasodilation to metacholine in the presence of L-NMMA and indomethacin. […]

[3] = test system: iliac artery; test: Small vessel myograph, iliac artery rings four weeks after stenting; format: in vivo, rat; conditions: FIG. 3
Description: as §1, with “weeks.” for “weeks. Five rats were excluded because of technical failure (aortic leakage or minipump failure) resulting in n=7 for Ang-(1-7) infusion, n=10 for saline infusion, and n-6 for sham-operated rats.”
(§2) Iliac and brachial arteries were prepared under a dissection microscope in Krebs solution that was kept at 4° C. […] After this, vessels were brought to tension in 20 μm steps until reaching a diameter corresponding to 100 mmHg transmural pressure (L100, calculated by exponential curve fitting with Excel software). […] All responses were recorded in grams tension. The responses to MeCh were expressed as the percent decrease in PE EC70 responses.

[4] = test system: brachial artery; test: Small vessel myograph, brachial artery rings four weeks after stenting; format: in vivo, rat; conditions: minipump infusion
Description: as §1, with “weeks.” for “weeks. Five rats were excluded because of technical failure (aortic leakage or minipump failure) resulting in n=7 for Ang-(1-7) infusion, n=10 for saline infusion, and n-6 for sham-operated rats.”
as §2

[5] = test system: rat bone marrow mononuclear cells (MNC) and endothelial progenitor cells (EPC); test: Cultured rat bone marrow mononuclear cells (MNC) and endothelial progenitor cells (EPC); format: cell-based; conditions: 10^−7 mol/L, 7 days of culture
Method: Five rats were sacrificed by exsanguination under O2, N2O and isoflurane anaesthesia. Bone marrow was isolated from the left and right femurs by flushing the bone marrow cavity with sterile phosphate-buffered saline at room temperature (PBS, Gibco, Invitrogen, Breda, The Netherlands). From each individual rat, MNC were obtained by density gradient centrifugation at 2000 rpm (MSE Mistral 3000i, UK) for 20 minutes at room temperature according to manufacturer's instruction (Cedarlane Laboratories ltd., Hornby, Canada). Cells from individual rats were then resuspended in endothelial cell basal medium-2 (EGM; Cambrex Bioproducts, Clonetics, New Jersey, USA) containing supplemented 2% fetal bovine serum and EGM-2 SingleQuots (Clonetics). At day 1, 5×10^5 cells/well were seeded in 1% gelatin (225 bloom, Sigma-Aldrich, Zwijndrecht, The Netherlands) precoated 96-well culture plates (Costar, Corning, N.Y., USA) at 37° C. in a humidified incubator in the presence of 5% CO2. At day 3 of culture, medium with non-attached cells was removed, and replaced by fresh culture medium containing Ang-(1-7) at 10^−7 mol/L with or without antagonists (treatment medium). Next, cells were grown for 7 days, changing treatment medium at day 5 and day 7. At day 9, treatment medium was removed and culture medium supplemented with 10 μg/mL acetylated low-density lipoprotein (Dil-Ac-LDL) was added to the cells for 4 h. […]
Detection of staining was performed with the use of fluorescence microscopy (Leica, Wetzlar, Germany) at a magnification of 200×. […] Cells were quantified with the use of ImagePro software (Media Cybernetics, Silver Spring, USA). In the occasion that the presence of cell clusters hindered proper digital quantification, cell numbers were assessed by hand. […]
To this purpose MNC were isolated from rat bone marrow and cultured for 2 days to allow attachment. […] To determine if Ang-(1-7) preferentially stimulated EPC, the number of EPC was expressed as a percentage of the total population of MNC (FIG. 6B). […]

Substance: angiotensin-(1-7) (DRVYIHP; listed as Homo sapiens) [Ang-(1-7)]
- neointimal formation (in words) ([1]; infusion using a minipump): reduction
- Neointima area NIA ([1]; minipump infusion 24 μg/kg/h for four weeks, bare metal stent in rat abdominal aorta, p < 0.05 vs. saline): 0.51 ± 0.05 mm²
- EDHF contribution to metacholine vasodilation ([2]; thoracic aorta): stimulated
- NO release (contribution to metacholine vasodilation) ([2]; thoracic aorta): did not alter
- PG contribution to metacholine vasodilation ([2]; thoracic aorta): stimulated
- Emax of total response on metacholine ([2]; stented group showed 40% decrease): full recovery
- vasodilation upon stimulation with metacholine ([3]; chronic infusion by minipump, iliac artery (downstream)): increased
- vasoconstrictions (phenylephrine) ([3]; minipump infusion, iliac artery): remained equal
- vasodilator function ([4]; brachial artery (remote), FIG. 4): improved
- vasoconstrictor responses to phenylephrine ([4]; brachial artery, to the level of sham-operated rats): decreased
- number of EPC ([5]; FIG. 6A): increased
- number of MNC ([5]; FIG. 6A): increased
- relative number of EPC (percentage of total MNC) ([5]; FIG. 6B): increased
